Drawing on patent US20060160753A1, “Micronutrient formulation for cognitive & mood benefits” (Conopco Inc, d/b/a UNILEVER, priority 2004, published 2006), this text covers PABA recovery for 1 compound.

Some results are limits rather than exact numbers.

The nature of this data set: Urinary PABA recovery (compliance marker), Example 1 trial. The class given is in vivo, human. As to conditions: 24 h urine, all time points; 120 mg PABA per bar, 2 bars daily. As for the experimental part: Subjects were then randomized in a parallel design into two groups to receive either the nutrient test bar or placebo food. Both placebo and test bars contained 120 mg PABA (para-aminobenzoic acid), urinary excretion of which was used as a measure of compliance. Subjects were asked to continue adherence to dietary restrictions described above and to consume the provided test or control product twice daily (once with breakfast and once with evening meal) over the 10 week period.
Fasting venous blood samples were collected at the start of the 10 week intervention phase and on the last week of the intervention period. Serum and EDTA plasma samples were then collected following centrifugation at 3000 rpm for 10 mins at 4° C. and aliquots stored at −80° C. prior to analysis. Twenty-four hour urine samples were also collected at a total of 6 different time points through the study to monitor PABA excretion.
33 subjects completed the study. Compliance was judged to be good as assessed by both subjective and objective measures. Briefly, subjects completed a food diary, in which labels attached to study bars were peeled off and stuck once consumed. The maximum number of bars reported to be missed was 14 during the 12 week (and therefore 168 bar) trial. This was corroborated by the urinary PABA results, which were used as an objective measure of compliance.

Take `Nc1ccc(C(=O)O)cc1` [PABA, para-aminobenzoic acid]: the PABA recovery is on record as > 85%.
